From US12480151B2, “DNA preservation in biological specimens using metal chelators” (Northeastern University, priority 2020, dated 2025)

Columns and labels:
[1] = test system: high molecular weight DNA in body tissue of Alitta virens; test: Preservation of high molecular weight DNA in stored tissue, TapeStation % R and nY; settings: A. virens, 3 months, room temperature
Description: (§1) To evaluate the contributions of the three components of DESS to DNA preservation in tissues, DNA quality was compared among extracts of tissues from three aquatic invertebrate taxa preserved for various time intervals in DESS or one of six DESS-variant solutions in a full factorial design. Each of these six variants contained either one of the three components of DESS individually or one of the three possible pairwise combinations of two DESS components. […] All solutions were prepared at room temperature (22-24° C.) using distilled deionized water as the diluent.
(§2) Live specimens of M. edulis and F. virilis were stored on ice and live A. virens were stored at 4° C. prior to dissection. Gill, abdominal muscle and body tissue samples were collected immediately after euthanasia from specimens of M. edulis, F. virilis, and A. virens, respectively. […] DNA was extracted from the ninth subsample, hereafter referred to as fresh tissue, immediately after dissection without preservation. […] Seven specimens of M. edulis, seven specimens of F. virilis and ten specimens of A. virens were assigned to each time interval for a total of 35 M. edulis, 35 F. virilis and 50 A. virens.
(§3) After the assigned storage interval, each tissue sample was removed from its storage solution and reweighed. […] To control for changes in tissue weight during storage, a correction ratio was calculated by dividing the tissue weight prior to storage by the post storage weight. Each extract subsample weight was then multiplied by the correction ratio to estimate the fresh tissue weight equivalent for that subsample. These values were then used to calculate normalized yield (see statistical analysis). DNA was extracted from tissues using the DNeasy Blood and Tissue Kit (Qiagen; Hilden, Germany) following the manufacturers recommended protocol with tissues digested overnight and DNA eluted by adding two sequential 50 μl volumes of Buffer AE for a total elution volume of 100 μl. […]

[2] = test system: high molecular weight DNA in gill tissue of Mytilus edulis; test: as above; settings: M. edulis, 3 months, room temperature
Description: as §1, §2, §3

[3] = test system: high molecular weight DNA in tissues of Mytilus edulis, Faxonius virilis and Alitta virens; test: Qualitative DNA fragment length distribution by agarose gel electrophoresis, several taxa; settings: M. edulis and F. virilis, 6 months, room temperature
Description: as §2

[4] = test system: high molecular weight DNA in tissues of Mytilus edulis, Faxonius virilis and Alitta virens; test: Preservation of high molecular weight DNA in stored tissue, TapeStation % R and nY, statements covering several taxa; settings: M. edulis and F. virilis, 3 months
Description: as §1
Live specimens of M. edulis and F. virilis were stored on ice and live A. virens were stored at 4° C. prior to dissection. Gill, abdominal muscle and body tissue samples were collected immediately after euthanasia from specimens of M. edulis, F. virilis, and A. virens, respectively. […] DNA was extracted from the ninth subsample, hereafter referred to as fresh tissue, immediately after dissection without preservation. […]
After the assigned storage interval, each tissue sample was removed from its storage solution and reweighed. […] To control for changes in tissue weight during storage, a correction ratio was calculated by dividing the tissue weight prior to storage by the post storage weight. […]

[5] = test system: high molecular weight DNA in tissues of Alitta virens; test: pH study: tissue stored 1 year in EDTA solutions at pH 8.0, 9.0, 10.0; settings: A. virens, one year of storage, room temperature
Description: The tissues of 5 species of aquatic animals were stored in the resulting solutions at room temperature for periods ranging from 6 weeks to 12 months.

rat = settings: oral; cited from earlier work

Structure (SMILES)	normalized high molecular weight DNA yield (nY) [1]	percent high molecular weight DNA recovered (% R) [1]	percent high molecular weight DNA recovered (% R), average [2] [%]	high molecular weight DNA visualized by agarose gel electrophoresis [3]	normalized high molecular weight DNA yield (nY) [4]	percent high molecular weight DNA recovered (% R) [4]	high molecular weight DNA yielded [5]	LD50 (rat)
CCO [EtOH, ethanol]	performed significantly better than tissues preserved in DE, DSS, D and E	performed significantly better than tissues preserved in DE, DSS, D and E	15.37	evident	equal to or significantly greater than fresh tissues	equal to or significantly greater than fresh tissues	little or no high molecular weight DNA	
[Cl-].[Na+] [NaCl, sodium chloride]								3,000 mg/kg
